Data: ChEMBL document CHEMBL4507259 (2021)

What was measured:
[1] = molecular target: Mitogen-activated protein kinase 1 (Homo sapiens) (UniProt P28482); details: Compound concentration 1000.0 nM
NCI-H1693 = test: H1693 cell line Proliferation assay; format: functional, Homo sapiens; details: Compound concentration 10 uM; time 3 day
[2] = molecular target: 5-hydroxytryptamine receptor 2B (Homo sapiens, UniProt P41595); test: GPCRScan assay: inhibition of 5-HT2B; set-up: radioligand conc. used [nm] 1.0 – 2.0, parental cells stable HEK
NCI-H23 = test: H23 cell line Proliferation assay; format: functional, Homo sapiens; details: Compound concentration 10 uM; time 3 day
Malme-3M = test: Malme3M cell line Proliferation assay; format: functional, Homo sapiens; details: Compound concentration 10 uM; time 5 day
[3] = molecular target: B2 bradykinin receptor (Homo sapiens) (UniProt P30411); test: B2 (h) CEREP ligand profiling; details: filed as agonist, Compound concentration 10.0 uM
DU-4475 = test: DU4475 cell line Proliferation assay; format: functional, Homo sapiens; details: Compound concentration 10 uM; time 5 day
SC1 = test: Sc1 cell line Proliferation assay; format: functional, Homo sapiens; details: Compound concentration 10 uM; time 3 day
K562 = test: K562 cell line Proliferation assay; format: functional, Homo sapiens; details: Compound concentration 10 uM; time 3 day
NCI-H929 = test: H929 cell line Proliferation assay; format: functional, Homo sapiens; details: Compound concentration 10 uM; time 3 day
[4] = molecular target: SRSF protein kinase 1 (Homo sapiens) (UniProt Q96SB4); details: Compound concentration 1000.0 nM
[5] = molecular target: Histone acetyltransferase KAT6B (Homo sapiens) (UniProt Q8WYB5); test: MYST4 (HAT) CEREP ligand profiling; details: Compound concentration 10.0 uM
NCI-H1048 = test: H1048 cell line Proliferation assay; format: functional, Homo sapiens; details: Compound concentration 10 uM; time 4 day
SU-DHL-2 = test: SuDHL2 cell line Proliferation assay; format: functional, Homo sapiens; details: Compound concentration 10 uM; time 3 day
[6] = molecular target: Histone acetyltransferase KAT2B (Homo sapiens) (UniProt Q92831); test: PCAF (HAT) CEREP ligand profiling; details: Compound concentration 10.0 uM
NCI-H209 = test: H209 cell line Proliferation assay; format: functional, Homo sapiens; details: Compound concentration 10 uM; time 4 day
SUD4 = test: SuDHL4 cell line Proliferation assay; format: functional, Homo sapiens; details: Compound concentration 10 uM; time 3 day
[7] = molecular target: Mitotic checkpoint serine/threonine-protein kinase BUB1 (Homo sapiens) (UniProt O43683); details: Compound concentration 1000.0 nM
[8] = molecular target: Muscle, skeletal receptor tyrosine-protein kinase (Homo sapiens) (UniProt O15146); details: Compound concentration 1000.0 nM
Chain of Muscle, skeletal receptor tyrosine-protein kinase (Homo sapiens) (O15146 whole entry): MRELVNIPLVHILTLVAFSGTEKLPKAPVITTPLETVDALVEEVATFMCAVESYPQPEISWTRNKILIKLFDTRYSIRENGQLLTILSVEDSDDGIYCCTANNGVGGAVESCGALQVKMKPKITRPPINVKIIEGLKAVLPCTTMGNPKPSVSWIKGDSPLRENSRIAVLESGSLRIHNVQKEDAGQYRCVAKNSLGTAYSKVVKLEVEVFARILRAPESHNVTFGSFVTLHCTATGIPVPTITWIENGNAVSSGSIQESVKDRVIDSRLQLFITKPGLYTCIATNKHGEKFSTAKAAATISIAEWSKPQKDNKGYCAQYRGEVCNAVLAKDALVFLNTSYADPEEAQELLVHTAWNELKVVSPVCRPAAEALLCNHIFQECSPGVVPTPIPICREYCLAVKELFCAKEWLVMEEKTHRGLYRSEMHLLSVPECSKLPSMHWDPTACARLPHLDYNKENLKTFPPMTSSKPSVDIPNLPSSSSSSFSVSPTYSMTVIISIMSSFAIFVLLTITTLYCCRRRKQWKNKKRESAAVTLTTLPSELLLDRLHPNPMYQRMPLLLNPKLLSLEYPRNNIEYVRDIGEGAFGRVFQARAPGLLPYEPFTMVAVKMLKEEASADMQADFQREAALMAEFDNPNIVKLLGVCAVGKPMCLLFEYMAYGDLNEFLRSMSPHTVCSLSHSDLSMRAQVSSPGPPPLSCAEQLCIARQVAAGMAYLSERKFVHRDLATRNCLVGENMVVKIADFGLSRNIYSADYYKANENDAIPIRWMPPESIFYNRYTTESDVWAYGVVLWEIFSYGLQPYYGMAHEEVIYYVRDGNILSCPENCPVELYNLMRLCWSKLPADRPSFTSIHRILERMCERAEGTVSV

MM1.S = test: MM1.s cell line Proliferation assay; format: functional, Homo sapiens; details: Compound concentration 10 uM; time 3 day
Kasumi 1 = test: Kasumi-1 cell line Proliferation assay; format: functional, Homo sapiens; details: Compound concentration 10 uM; time 3 day
SKM-1 = test: SKM-1 cell line Proliferation assay; format: functional, Homo sapiens; details: Compound concentration 10 uM; time 3 day
OCI-Ly18 = test: OCI Ly18 cell line Proliferation assay; format: functional, Homo sapiens; details: Compound concentration 10 uM; time 3 day
HT-144 = test: HT-144 cell line Proliferation assay; format: functional, Homo sapiens; details: Compound concentration 10 uM; time 5 day
[9] = molecular target: Beta-1 adrenergic receptor (Homo sapiens) (UniProt P08588); test: beta 1 (h) CEREP ligand profiling; details: filed as agonist, Compound concentration 10.0 uM
U2932 = test: U2932 cell line Proliferation assay; format: functional, Homo sapiens; details: Compound concentration 10 uM; time 3 day
Ramos = test: Ramos cell line Proliferation assay; format: functional, Homo sapiens; details: Compound concentration 10 uM; time 3 day
NCI-H838 = test: H838 cell line Proliferation assay; format: functional, Homo sapiens; details: Compound concentration 10 uM; time 3 day
SK-MEL-24 = test: SKMEL24 cell line Proliferation assay; format: functional, Homo sapiens; details: Compound concentration 10 uM; time 5 day
NU-DHL-1 = test: NuDHL1 cell line Proliferation assay; format: functional, Homo sapiens; details: Compound concentration 10 uM; time 3 day
[10] = tested on: Epidermal growth factor receptor (Homo sapiens), P00533 [UNDEFINED MUTATION]; details: Compound concentration 1000.0 nM
GA-10 = test: GA10 cell line Proliferation assay; format: functional, Homo sapiens; details: Compound concentration 10 uM; time 3 day
HT = test: HT cell line Proliferation assay; format: functional, Homo sapiens; details: Compound concentration 10 uM; time 3 day
[11] = molecular target: Serine/threonine-protein kinase D1 (Homo sapiens) (UniProt Q15139); details: Compound concentration 1000.0 nM
Chain of Serine/threonine-protein kinase D1 (Homo sapiens) (Q15139 whole entry): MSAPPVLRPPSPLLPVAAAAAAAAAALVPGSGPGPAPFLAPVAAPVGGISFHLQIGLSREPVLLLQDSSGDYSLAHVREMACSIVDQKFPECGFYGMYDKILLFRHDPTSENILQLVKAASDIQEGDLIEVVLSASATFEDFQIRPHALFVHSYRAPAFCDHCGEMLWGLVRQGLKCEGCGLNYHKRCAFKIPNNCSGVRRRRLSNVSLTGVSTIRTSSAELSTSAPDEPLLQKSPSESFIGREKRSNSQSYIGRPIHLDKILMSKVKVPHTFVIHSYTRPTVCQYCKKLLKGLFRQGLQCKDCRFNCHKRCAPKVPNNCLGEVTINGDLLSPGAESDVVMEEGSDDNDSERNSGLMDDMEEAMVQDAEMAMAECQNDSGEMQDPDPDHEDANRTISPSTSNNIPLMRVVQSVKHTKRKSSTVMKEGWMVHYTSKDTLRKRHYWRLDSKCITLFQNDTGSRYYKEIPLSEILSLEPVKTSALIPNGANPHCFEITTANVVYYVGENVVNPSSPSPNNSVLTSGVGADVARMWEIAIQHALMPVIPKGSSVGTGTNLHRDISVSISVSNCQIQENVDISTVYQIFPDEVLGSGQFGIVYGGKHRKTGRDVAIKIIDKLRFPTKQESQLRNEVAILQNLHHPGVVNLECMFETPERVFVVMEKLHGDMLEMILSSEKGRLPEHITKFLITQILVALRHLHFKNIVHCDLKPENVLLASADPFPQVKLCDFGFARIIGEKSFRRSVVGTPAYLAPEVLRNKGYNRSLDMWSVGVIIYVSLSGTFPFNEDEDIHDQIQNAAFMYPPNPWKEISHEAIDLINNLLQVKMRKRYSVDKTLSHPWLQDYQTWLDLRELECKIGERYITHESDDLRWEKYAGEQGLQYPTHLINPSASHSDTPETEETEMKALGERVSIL

MDA-MB-468 = test: MDA_MB_468 cell line Proliferation assay; format: functional, Homo sapiens; details: Compound concentration 10 uM; time 5 day
WM 266-4 = test: WM2664 cell line Proliferation assay; format: functional, Homo sapiens; details: Compound concentration 10 uM; time 5 day
WSU-NHL = test: WSU-NHL cell line Proliferation assay; format: functional, Homo sapiens; details: Compound concentration 10 uM; time 3 day
[12] = molecular target: Cyclin-dependent kinase-like 2 (Homo sapiens) (UniProt Q92772); details: Compound concentration 1000.0 nM
[13] = molecular target: Substance-P receptor (Homo sapiens) (UniProt P25103); test: NK1 (h) CEREP ligand profiling; details: filed as agonist, Compound concentration 10.0 uM
Chain of Substance-P receptor (Homo sapiens) (P25103 whole entry): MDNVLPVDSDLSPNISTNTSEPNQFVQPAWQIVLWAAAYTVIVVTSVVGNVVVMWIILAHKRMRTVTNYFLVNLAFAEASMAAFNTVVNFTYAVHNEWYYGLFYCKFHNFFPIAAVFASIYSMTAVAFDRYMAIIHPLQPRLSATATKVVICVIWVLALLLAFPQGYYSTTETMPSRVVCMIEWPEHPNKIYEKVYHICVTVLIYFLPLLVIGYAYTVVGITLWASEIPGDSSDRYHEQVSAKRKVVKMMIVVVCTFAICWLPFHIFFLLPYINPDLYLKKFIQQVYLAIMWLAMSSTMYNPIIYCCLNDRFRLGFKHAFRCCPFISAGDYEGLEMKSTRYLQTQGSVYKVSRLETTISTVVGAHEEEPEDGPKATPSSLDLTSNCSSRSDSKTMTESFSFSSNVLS

[14] = molecular target: 5-hydroxytryptamine receptor 7 (Homo sapiens) (UniProt P34969); details: Compound concentration 10.0 uM
[15] = molecular target: Sodium-dependent serotonin transporter (Homo sapiens, UniProt P31645); test: GPCRScan assay: inhibition of SERT; set-up: radioligand conc. used [nm] 1.5 – 2.0, parental cells stable HEK
Chain of Sodium-dependent serotonin transporter (P31645 whole entry): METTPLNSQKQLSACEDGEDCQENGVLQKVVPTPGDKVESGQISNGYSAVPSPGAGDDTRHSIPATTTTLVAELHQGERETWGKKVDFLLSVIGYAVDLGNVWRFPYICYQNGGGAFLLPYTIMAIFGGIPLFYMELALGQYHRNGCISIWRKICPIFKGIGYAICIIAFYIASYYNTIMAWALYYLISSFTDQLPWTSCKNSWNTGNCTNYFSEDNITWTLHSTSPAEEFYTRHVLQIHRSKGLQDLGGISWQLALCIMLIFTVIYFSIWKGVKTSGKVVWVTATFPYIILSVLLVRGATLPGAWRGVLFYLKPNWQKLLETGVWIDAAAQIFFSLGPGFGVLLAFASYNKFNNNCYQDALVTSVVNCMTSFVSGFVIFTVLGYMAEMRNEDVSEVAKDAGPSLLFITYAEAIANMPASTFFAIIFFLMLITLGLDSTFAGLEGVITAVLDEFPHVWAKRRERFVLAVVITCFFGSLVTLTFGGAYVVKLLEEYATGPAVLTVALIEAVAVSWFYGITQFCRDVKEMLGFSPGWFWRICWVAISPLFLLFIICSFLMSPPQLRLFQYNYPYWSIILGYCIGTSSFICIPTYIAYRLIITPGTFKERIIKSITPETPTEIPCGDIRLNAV

SK-MEL-5 = test: SKMEL5 cell line Proliferation assay; format: functional, Homo sapiens; details: Compound concentration 10 uM; time 5 day
MDA-MB-453 = test: MDA_MB_453 cell line Proliferation assay; format: functional, Homo sapiens; details: Compound concentration 10 uM; time 5 day
[16] = molecular target: Leukocyte tyrosine kinase receptor (Homo sapiens) (UniProt P29376); details: Compound concentration 1000.0 nM
[17] = molecular target: Serine/threonine-protein kinase TAO1 (Homo sapiens) (UniProt Q7L7X3); details: Compound concentration 1000.0 nM
Chain of Serine/threonine-protein kinase TAO1 (Homo sapiens) (Q7L7X3 whole entry): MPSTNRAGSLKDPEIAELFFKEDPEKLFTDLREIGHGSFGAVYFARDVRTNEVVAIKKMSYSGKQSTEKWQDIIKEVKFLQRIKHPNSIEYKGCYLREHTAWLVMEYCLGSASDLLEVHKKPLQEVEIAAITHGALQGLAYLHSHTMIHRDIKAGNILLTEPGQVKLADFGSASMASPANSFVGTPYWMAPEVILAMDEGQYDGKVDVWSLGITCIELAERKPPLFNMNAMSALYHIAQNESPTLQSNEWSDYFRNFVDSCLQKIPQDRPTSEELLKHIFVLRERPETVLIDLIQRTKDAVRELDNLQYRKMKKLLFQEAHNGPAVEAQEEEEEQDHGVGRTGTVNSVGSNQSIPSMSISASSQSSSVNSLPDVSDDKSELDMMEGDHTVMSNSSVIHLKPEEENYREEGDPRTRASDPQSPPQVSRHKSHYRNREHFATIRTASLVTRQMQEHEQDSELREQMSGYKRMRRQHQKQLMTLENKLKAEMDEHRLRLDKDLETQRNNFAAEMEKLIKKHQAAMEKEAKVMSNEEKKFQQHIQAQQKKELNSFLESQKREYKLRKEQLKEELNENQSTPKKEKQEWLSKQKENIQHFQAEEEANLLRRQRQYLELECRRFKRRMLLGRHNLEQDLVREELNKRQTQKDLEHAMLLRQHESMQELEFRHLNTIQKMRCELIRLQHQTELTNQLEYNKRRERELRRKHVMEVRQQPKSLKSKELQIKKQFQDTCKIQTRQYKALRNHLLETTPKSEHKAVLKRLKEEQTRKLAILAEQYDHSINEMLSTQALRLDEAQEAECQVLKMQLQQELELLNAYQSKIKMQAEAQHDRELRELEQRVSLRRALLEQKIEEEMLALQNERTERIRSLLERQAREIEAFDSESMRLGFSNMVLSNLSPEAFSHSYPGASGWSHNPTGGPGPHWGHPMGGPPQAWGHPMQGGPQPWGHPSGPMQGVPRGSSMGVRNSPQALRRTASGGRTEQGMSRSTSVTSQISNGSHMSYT

[18] = molecular target: Serine/threonine-protein kinase DCLK3 (Homo sapiens) (UniProt Q9C098); details: Compound concentration 1000.0 nM
Chain of Serine/threonine-protein kinase DCLK3 (Homo sapiens) (Q9C098 whole entry): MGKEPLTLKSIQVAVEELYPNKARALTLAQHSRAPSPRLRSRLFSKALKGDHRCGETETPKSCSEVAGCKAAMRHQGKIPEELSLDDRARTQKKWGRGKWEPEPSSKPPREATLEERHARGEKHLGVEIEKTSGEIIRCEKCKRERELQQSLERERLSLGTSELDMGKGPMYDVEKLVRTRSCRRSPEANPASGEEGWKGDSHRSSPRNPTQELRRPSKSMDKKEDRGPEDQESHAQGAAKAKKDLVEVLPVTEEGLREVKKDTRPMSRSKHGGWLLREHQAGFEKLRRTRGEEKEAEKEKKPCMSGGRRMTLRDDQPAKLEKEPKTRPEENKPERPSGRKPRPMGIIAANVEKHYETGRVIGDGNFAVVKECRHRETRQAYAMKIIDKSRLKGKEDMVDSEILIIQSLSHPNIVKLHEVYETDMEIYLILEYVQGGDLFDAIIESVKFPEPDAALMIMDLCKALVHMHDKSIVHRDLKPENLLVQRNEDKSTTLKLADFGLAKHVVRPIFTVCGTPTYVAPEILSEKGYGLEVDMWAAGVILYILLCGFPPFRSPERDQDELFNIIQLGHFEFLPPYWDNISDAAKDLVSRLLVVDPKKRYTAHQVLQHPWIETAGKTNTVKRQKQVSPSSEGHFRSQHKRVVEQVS

BT-20 = test: BT-20 cell line Proliferation assay; format: functional, Homo sapiens; details: Compound concentration 10 uM; time 5 day
[19] = molecular target: 5-hydroxytryptamine receptor 2A (Homo sapiens) (UniProt P28223); details: Compound concentration 10.0 uM
NCI-H128 = test: H128 cell line Proliferation assay; format: functional, Homo sapiens; details: Compound concentration 10 uM; time 4 day
OCI-Ly7 = test: OCI Ly7 cell line Proliferation assay; format: functional, Homo sapiens; details: Compound concentration 10 uM; time 3 day
SK-MEL-1 = test: SKMEL1 cell line Proliferation assay; format: functional, Homo sapiens; details: Compound concentration 10 uM; time 5 day
[20] = molecular target: Serine/threonine-protein kinase PAK 2 (Homo sapiens) (UniProt Q13177); details: Compound concentration 1000.0 nM
[21] = molecular target: cGMP-inhibited 3',5'-cyclic phosphodiesterase 3A (Homo sapiens) (UniProt Q14432); test: PDE3A (h) CEREP ligand profiling; details: Compound concentration 10.0 uM
[22] = molecular target: GABA-A receptor; alpha-1/beta-2/gamma-2 (Homo sapiens) (UniProt P14867+P47870+P18507); test: GABAA1 (h) (alpha 1,beta 2,gamma 2) CEREP ligand profiling; format: protein-complex assay; details: filed as agonist, Compound concentration 10.0 uM
[23] = molecular target: CREB-binding protein/Histone acetyltransferase p300 (Homo sapiens, UniProt Q09472+Q92793); test: Inhibition of H3K27Ac (LnCaP-FGC); format: cell-based; details: lncap-clone-fgc
[24] = molecular target: Tyrosine-protein kinase ITK/TSK (Homo sapiens) (UniProt Q08881); details: Compound concentration 1000.0 nM
[25] = molecular target: Prostaglandin G/H synthase 1 (Homo sapiens) (UniProt P23219); test: COX1(h) CEREP ligand profiling; details: Compound concentration 10.0 uM
[26] = molecular target: Mu-type opioid receptor (Homo sapiens) (UniProt P35372); details: Compound concentration 10.0 uM
[27] = molecular target: Cyclin-dependent kinase-like 3 (Homo sapiens) (UniProt Q8IVW4); details: Compound concentration 1000.0 nM

Chain of Mitogen-activated protein kinase 1 (Homo sapiens) (P28482 whole entry): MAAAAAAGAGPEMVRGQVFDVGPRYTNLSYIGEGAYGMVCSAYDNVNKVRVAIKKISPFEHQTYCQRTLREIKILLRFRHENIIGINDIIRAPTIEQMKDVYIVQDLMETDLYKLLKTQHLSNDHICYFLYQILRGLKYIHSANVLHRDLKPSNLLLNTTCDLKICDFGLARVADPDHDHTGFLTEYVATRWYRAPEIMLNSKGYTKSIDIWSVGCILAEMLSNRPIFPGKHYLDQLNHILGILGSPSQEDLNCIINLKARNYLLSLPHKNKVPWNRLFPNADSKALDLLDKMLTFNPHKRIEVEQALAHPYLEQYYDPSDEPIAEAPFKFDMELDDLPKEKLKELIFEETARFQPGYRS

CNC(=O)Nc1ccc2c(c1)CC[C@@]21OC(=O)N(CC(=O)N(Cc2ccc(F)cc2)[C@@H](C)C(F)(F)F)C1=O [A-485]
residual activity [1]: 91%
Cell Proliferation EC50 (NCI-H1693): 2367 nM
Ki ([2]; read-out: Ki): 1290 nM
Ki ([2]; read-out: pKi (converted)): 1200 nM
Cell Proliferation EC50 (NCI-H23): 1791 nM
Cell Proliferation EC50 (Malme-3M): 2687 nM
inhibition [3]: 0%
Cell Proliferation EC50 (DU-4475): 668.3 nM
Cell Proliferation EC50 (SC1): 1689 nM
Cell Proliferation EC50 (K562): 1270 nM
Cell Proliferation EC50 (NCI-H929): 329 nM
residual activity [4]: 95%
inhibition [5]: 1.4%
Cell Proliferation EC50 (NCI-H1048): >10000 nM
Cell Proliferation EC50 (SU-DHL-2): 953.8 nM
inhibition [6]: 1%
Cell Proliferation EC50 (NCI-H209): 400 nM
Cell Proliferation EC50 (SUD4): 720.4 nM
residual activity [7]: 66%
residual activity [8]: 91%
Cell Proliferation EC50 (MM1.S): 181 nM
Cell Proliferation EC50 (Kasumi 1): 285 nM
Cell Proliferation EC50 (SKM-1): 1340 nM
Cell Proliferation EC50 (OCI-Ly18): 321.3 nM
Cell Proliferation EC50 (HT-144): 3077 nM
inhibition [9]: 17%
Cell Proliferation EC50 (U2932): 2460 nM
Cell Proliferation EC50 (Ramos): 934 nM
Cell Proliferation EC50 (NCI-H838): 6990 nM
Cell Proliferation EC50 (SK-MEL-24): >10000 nM
Cell Proliferation EC50 (NU-DHL-1): 530.1 nM
residual activity [10]: 95%
Cell Proliferation EC50 (GA-10): 1059 nM
Cell Proliferation EC50 (HT): >10000 nM
residual activity [11]: 99%
Cell Proliferation EC50 (MDA-MB-468): 376.7 nM
Cell Proliferation EC50 (WM 266-4): 1914 nM
Cell Proliferation EC50 (WSU-NHL): 1063 nM
residual activity [12]: 100%
inhibition [13]: 21%
inhibition [14]: 7.83%
Ki ([15]; read-out: Ki): 223 nM
Ki ([15]; read-out: pKi (converted)): 219 nM
Cell Proliferation EC50 (SK-MEL-5): 907 nM
Cell Proliferation EC50 (MDA-MB-453): 1866.4 nM
residual activity [16]: 100%
residual activity [17]: 94%
residual activity [18]: 83%
Cell Proliferation EC50 (BT-20): 336.5 nM
inhibition [19]: 34.6%
Cell Proliferation EC50 (NCI-H128): >10000 nM
Cell Proliferation EC50 (OCI-Ly7): 1813 nM
Cell Proliferation EC50 (SK-MEL-1): 571 nM

CNC(=O)Nc1ccc2c(c1)[C@@]1(CC2)OC(=O)N(CC(=O)N(Cc2ccc(F)cc2)[C@@H](C)C(F)(F)F)C1=O [A-486]
residual activity [1]: 91%
residual activity [20]: 94%
inhibition [21]: -1%
inhibition [22]: 0%
IC50 [23]: > 10000 nM
residual activity [4]: 100%
residual activity [24]: 92%
residual activity [7]: 77%
residual activity [8]: 100%
inhibition [9]: 6%
residual activity [10]: 96%
inhibition [25]: -5%
inhibition [26]: -5.11%
residual activity [11]: 100%
residual activity [27]: 92%
residual activity [12]: 83%
inhibition [13]: 12%
residual activity [16]: 100%
residual activity [17]: 97%
residual activity [18]: 81%
inhibition [19]: 26.6%
